Source: patent US20250270170A1, “2,3-DIMETHOXY-5-METHYL-1,4-BENZOQUINONE ALKYL ALCOHOL DERIVATIVE AND USE THEREOF” (BEIJING ANJIANXI BIO-MEDICAL TECHNOLOGY CO., LTD., priority 2021, published 2025)
Marks after values point to notes of the source that are not given here.

How the values were obtained:
[1] = Example 3: body weight of NCI-N87 tumor-bearing nude mice; format: in vivo, BALB/c nude mice
Description: The NCI-N87 cells in the logarithmic growth phase were collected, counted and resuspended in a serum-free RPMI-1640 medium, and the cell concentration was adjusted to 5×10^7 cells/mL. The cells were pipetted with a pipette to disperse them evenly, and the cells were put into a 50-mL centrifuge tube, which was placed in an ice box. A 1-mL syringe was used to draw the cell suspension, which was injected subcutaneously into the axilla of the front right limb of a nude mouse. Each animal was inoculated with 100 μL (5×10^6 cells/mouse) to establish an NCI-N87 transplanted tumor model in nude mice. After the inoculation, the animal status and tumor growth were regularly observed, and the tumor diameter was measured using an electronic vernier caliper. The data were input into an Excel spreadsheet to calculate the tumor volume. When the tumor volume reached 100 to 300 mm^3, 72 animals in good health and with similar tumor volumes were selected and divided into 9 groups (n=8) using randomized block method. The day of grouping was regarded as the first day of the assay (D1). After the start of the assay, the tumor diameter was measured twice a week, the tumor volume was calculated, and the animal body weight was also weighed and recorded. [table] The calculation formula of animal weight loss rate is: wherein BWt represents the animal body weight measured each time during the administration period; BWinitial represents the animal body weight when being grouped for administration. The assay data were calculated and processed statistically using Microsoft Office Excel 2007 software. Unless otherwise specified, the data were expressed as mean±standard error (Mean±SE), and t-test was used for comparison between two groups.

[2] = system: human gastric cancer NCI-N87 transplanted tumor; assay: Example 7: tumor growth in NCI-N87 transplanted tumor model, alone and combined with DDP; format: in vivo, nude mice; settings: for Mean tumor volume / tumor growth inhibition rate (TGI): R01 16 mg/kg PO QD×32
[3] = Example 9: serum urea nitrogen (BUN) at the end of the assay; format: in vivo, nude mice; settings: mouse, in vivo
Description: On the last day of the assay, CO2 inhalation anesthesia was used on the animals 1 hour after the administration (R01). Blood was collected through the heart, and a part of the whole blood was added with EDTA-K2 for anticoagulation. The plasma was separated by centrifugation at 4° C. and 1500 g for 10 minutes. The plasma was collected, and stored in a −40° C. to −20° C. freezer (if necessary, it can be used for the determination of the plasma drug concentration). No anticoagulant was added to the other part of the whole blood, and the serum was separated by centrifugation after the blood coagulated, which was used for the detection of blood urea nitrogen. After the blood collection, the tumor tissue was collected, weighed and photographed. Then, the tumor was divided into two parts, quickly cryopreserved by liquid nitrogen, and transferred to a −90° C. to −60° C. freezer for storage. Bilateral kidneys were collected and fixed in 10% formalin.

[4] = system: human colorectal cancer HT29 transplanted tumor; assay: Example 10: tumor growth in HT-29 transplanted tumor model; format: in vivo, nude mice; settings: for Mean tumor volume ± SE / tumor growth inhibition rate: HT-29 model, DDP 5 mg/kg i.p. QW × 3, R01 18 mg/kg i.g. BID × 28
Description: The human colorectal cancer cell lines HT-29 were obtained from the Cell Bank of the Type Culture Collection Committee of Chinese Academy of Sciences (CAS, cryopreserved in liquid nitrogen in this assay).
HT-29 cells were routinely cultured in a McCoy […] containing 10% fetal bovine serum under culture conditions of 37° C. and 5% CO2. The cells were digested with 0.25% trypsin, and passaged according to the cell growth conditions with a passaging ratio of 1:3 to 1:4.
On D1 of the assay, the HT-29 cells in the logarithmic growth phase were collected, counted and resuspended in serum-free McCoy, and the cell concentration was adjusted to 4×10^7 cells/mL. The cells were pipetted with a pipette to disperse them evenly, and the cells were put into a 50-mL centrifuge tube, which was placed in an ice box. A 1-mL syringe was used to draw the cell suspension, which was injected subcutaneously into the axilla of the front right limb of a nude mouse. Each animal was inoculated with 100 μL (4×10^6 cells/mouse) to establish a HT-29 transplanted tumor model in nude mice. After the inoculation, the animal status and tumor growth were regularly observed. On D12, the tumor diameter was measured using an electronic vernier caliper. The data were input into an Excel spreadsheet to calculate the tumor volume. Tumor-bearing mice in good health and with similar tumor volumes (103 to 179 mm^3) were selected and divided into groups using randomized block method. After the start of the assay, the tumor diameter was measured regularly, the tumor volume was calculated, and the animal body weight was also weighed and recorded.

COC1=C(OC)C(=O)C(CCCCCCCCCCOC(=O)Cc2c(C)n(C(=O)c3ccc(Cl)cc3)c3ccc(OC)cc23)=C(C)C1=O [compound of formula (I)]
Mean animal body weight ([1]; D13, 2 mg/kg i.g. BID×28): 18.3 ± 0.4 g
Mean animal body weight ([1]; D13, 6 mg/kg i.g. BID×28): 17.6 ± 0.3 g
Mean animal body weight ([1]; D13, 18 mg/kg i.g. BID×28): 17.9 ± 0.5 g
Mean animal body weight ([1]; D16, 2 mg/kg i.g. BID×28): 18.2 ± 0.5 g
body weight loss rate ([1]; D16, 2 mg/kg i.g. BID×28): (0.41%)
Mean animal body weight ([1]; D16, 6 mg/kg i.g. BID×28): 17.6 ± 0.3 g
body weight loss rate ([1]; D16, 6 mg/kg i.g. BID×28): (0.28%)
Mean animal body weight ([1]; D16, 18 mg/kg i.g. BID×28): 17.7 ± 0.4 g
body weight loss rate ([1]; D16, 18 mg/kg i.g. BID×28): (1.0%)
Mean animal body weight ([1]; D20, 2 mg/kg i.g. BID×28): 18.2 ± 0.4 g
body weight loss rate ([1]; D20, 2 mg/kg i.g. BID×28): (0.27%)
Mean animal body weight ([1]; D20, 6 mg/kg i.g. BID×28): 17.5 ± 0.4 g
body weight loss rate ([1]; D20, 6 mg/kg i.g. BID×28): (0.50%)
Mean animal body weight ([1]; D20, 18 mg/kg i.g. BID×28): 17.8 ± 0.3 g
body weight loss rate ([1]; D20, 18 mg/kg i.g. BID×28): (0.56%)
Mean animal body weight ([1]; D23, 2 mg/kg i.g. BID×28): 18.5 ± 0.5 g
body weight loss rate ([1]; D23, 2 mg/kg i.g. BID×28): (−1.0%)
Mean animal body weight ([1]; D23, 6 mg/kg i.g. BID×28): 18.1 ± 0.5 g
body weight loss rate ([1]; D23, 6 mg/kg i.g. BID×28): (−2.7%)
Mean animal body weight ([1]; D23, 18 mg/kg i.g. BID×28): 18.0 ± 0.4 g
body weight loss rate ([1]; D23, 18 mg/kg i.g. BID×28): (−0.42%)
Mean animal body weight ([1]; D27, 2 mg/kg i.g. BID×28): 18.7 ± 0.5 g
body weight loss rate ([1]; D27, 2 mg/kg i.g. BID×28): (−2.5%)
Mean animal body weight ([1]; D27, 6 mg/kg i.g. BID×28): 18.3 ± 0.5 g
body weight loss rate ([1]; D27, 6 mg/kg i.g. BID×28): (−3.7%)
Mean animal body weight ([1]; D27, 18 mg/kg i.g. BID×28): 18.1 ± 0.3 g
body weight loss rate ([1]; D27, 18 mg/kg i.g. BID×28): (−1.0%)
Mean animal body weight ([1]; D30, 2 mg/kg i.g. BID×28): 18.9 ± 0.4 g
body weight loss rate ([1]; D30, 2 mg/kg i.g. BID×28): (−3.4%)
Mean animal body weight ([1]; D30, 6 mg/kg i.g. BID×28): 18.3 ± 0.4 g
body weight loss rate ([1]; D30, 6 mg/kg i.g. BID×28): (−4.0%)
Mean animal body weight ([1]; D30, 18 mg/kg i.g. BID×28): 18.4 ± 0.4 g
body weight loss rate ([1]; D30, 18 mg/kg i.g. BID×28): (−2.7%)
Mean animal body weight ([1]; D34, 2 mg/kg i.g. BID×28): 19.3 ± 0.5 g
body weight loss rate ([1]; D34, 2 mg/kg i.g. BID×28): (−5.8%)
Mean animal body weight ([1]; D34, 6 mg/kg i.g. BID×28): 18.5 ± 0.4 g
body weight loss rate ([1]; D34, 6 mg/kg i.g. BID×28): (−5.1%)
Mean animal body weight ([1]; D34, 18 mg/kg i.g. BID×28): 18.7 ± 0.4 g
body weight loss rate ([1]; D34, 18 mg/kg i.g. BID×28): (−4.3%)
Mean animal body weight ([1]; D37, 2 mg/kg i.g. BID×28): 19.5 ± 0.5 g
body weight loss rate ([1]; D37, 2 mg/kg i.g. BID×28): (−6.5%)
Mean animal body weight ([1]; D37, 6 mg/kg i.g. BID×28): 18.6 ± 0.4 g
body weight loss rate ([1]; D37, 6 mg/kg i.g. BID×28): (−5.8%)
Mean animal body weight ([1]; D37, 18 mg/kg i.g. BID×28): 18.8 ± 0.4 g
body weight loss rate ([1]; D37, 18 mg/kg i.g. BID×28): (−4.8%)
Mean animal body weight ([1]; D44, 2 mg/kg i.g. BID×28): 19.2 ± 0.6 g
body weight loss rate ([1]; D44, 2 mg/kg i.g. BID×28): (−5.2%)
Mean animal body weight ([1]; D44, 6 mg/kg i.g. BID×28): 19.0 ± 0.5 g
body weight loss rate ([1]; D44, 6 mg/kg i.g. BID×28): (−8.0%)
Mean animal body weight ([1]; D44, 18 mg/kg i.g. BID×28): 19.1 ± 0.4 g
body weight loss rate ([1]; D44, 18 mg/kg i.g. BID×28): (−6.9%)
effect on body weight compared with blank control group ([1]; NCI-N87 tumor-bearing nude mice, summary of Table 6): no significant effect
Mean tumor volume ([2]; D12): 155 ± 4 mm^3
Mean tumor volume ([2]; D16): 200 ± 6** mm^3
tumor growth inhibition rate (TGI) ([2]; D16): 29%
Mean tumor volume ([2]; D19): 263 ± 14** mm^3
tumor growth inhibition rate (TGI) ([2]; D19): 27%
Mean tumor volume ([2]; D23): 336 ± 18** mm^3
tumor growth inhibition rate (TGI) ([2]; D23): 30%
Mean tumor volume ([2]; D26): 421 ± 26** mm^3
tumor growth inhibition rate (TGI) ([2]; D26): 33%
Mean tumor volume ([2]; D30): 509 ± 46** mm^3
tumor growth inhibition rate (TGI) ([2]; D30): 43%
Mean tumor volume ([2]; D33): 577 ± 52** mm^3
tumor growth inhibition rate (TGI) ([2]; D33): 45%
Mean tumor volume ([2]; D37): 681 ± 63** mm^3
tumor growth inhibition rate (TGI) ([2]; D37): 46%
Mean tumor volume ([2]; D40): 758 ± 74** mm^3
tumor growth inhibition rate (TGI) ([2]; D40): 47%
Mean tumor volume ([2]; D44): 871 ± 94** mm^3
tumor growth inhibition rate (TGI) ([2]; D44): 45%
effect on growth of the NCI-N87 transplanted tumor (summary) ([2]; R01 alone 16 mg/kg QD, combinations: R01 3, 6, 16 mg/kg (QD) with DDP): significant inhibitory effect
BUN (mmol/L) Mean ± SE ([3]; 18 mg/kg): 22.51 ± 1.24 mmol/L
BUN (mmol/L) Mean ± SE ([3]; 36 mg/kg): 22.69 ± 1.17 mmol/L
Mean tumor volume ± SE ([4]; D 12 (grouping)): 134 ± 9 mm^3
Mean tumor volume ± SE ([4]; D 15): 178 ± 7 mm^3
tumor growth inhibition rate ([4]; D 15): (40%)
Mean tumor volume ± SE ([4]; D 19): 280 ± 9** mm^3
tumor growth inhibition rate ([4]; D 19): (42%)
Mean tumor volume ± SE ([4]; D 22): 393 ± 19** mm^3
tumor growth inhibition rate ([4]; D 22): (34%)
Mean tumor volume ± SE ([4]; D 26): 532 ± 31** mm^3
tumor growth inhibition rate ([4]; D 26): (31%)
Mean tumor volume ± SE ([4]; D 29): 631 ± 40** mm^3
tumor growth inhibition rate ([4]; D 29): (38%)
Mean tumor volume ± SE ([4]; D 33): 832 ± 59** mm^3
tumor growth inhibition rate ([4]; D 33): (36%)
Mean tumor volume ± SE ([4]; D 36): 903 ± 73** mm^3
tumor growth inhibition rate ([4]; D 36): (37%)
Mean tumor volume ± SE ([4]; D 40): 1070 ± 94** mm^3
tumor growth inhibition rate ([4]; D 40): (33%)
anti-tumor effect in combination with cisplatin (summary) ([4]; HT-29 transplanted tumor model in nude mice): synergistic anti-tumor effect
